The source of these data is ChEMBL document CHEMBL1201862, “PubChem BioAssay data set” (2004).

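Compound exposure: 48 hours, 5 concentrations, 96-well plates. GI50 is the concentration that inhibits growth by half.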 Activity calls are given as the source filed them. Cut-off read from the data, not from the text of the source: active = GI50 up to about 1.1 µM and inactive = higher.

Test systems include 786-0; CAKI-1; CCRF-CEM; HL-60; M14; MCF7; MDA-MB-231; NCI/ADR-RES; RPMI-8226; RXF 393; SF-295; SK-MEL-2; SK-MEL-5; SNB-19; SNB-75; SR; SW-620; TK-10; U-251; UO-31.
Holding throughout (test): NCI tumour cell line growth inhibition, 48 h

As for `CC1CC[C@@]2(OC1)OC1C[C@H]3[C@@H]4CC[C@H]5CC(OC6OC(CO)C(O)C(OC7OC(CO)C(OC8OC(CO)C(O)C(OC9OC(CO)C(O)C(O)C9O)C8OC8OC(CO)C(O)C(O)C8O)C(O)C7O)C6O)[C@H](O)CC5(C)[C@H]4CCC3(C)C1[C@@H]2C` (stereo not given in full), the GI50 with 786-0 is 1.88 µM (inactive); in the assay on CAKI-1, 4.11 µM (inactive); in the assay on CCRF-CEM it was 2.08 µM (inactive); with HL-60 it was 2.57 µM (inactive); in the assay on M14, 9.04 µM (inactive); in the assay on MCF7 it was 1.66 µM (inactive). Besides, the GI50 in the assay with MDA-MB-231 was 1.31 µM (inactive); in the assay on NCI/ADR-RES, 4.72 µM (inactive); in the assay with RPMI-8226, 2.55 µM (inactive); in the assay with RXF 393 it was 1.34 µM (inactive); in the assay on SF-295, 2.99 µM (inactive); in the assay on SK-MEL-2, 3.27 µM (inactive). Also, the GI50 in the assay on SK-MEL-5 was 6.95 µM (inactive); with SNB-19 it was 2.2 µM (inactive); in the assay on SNB-75 it was 3.98 µM (inactive); in the assay on SR it was 1.11 µM (active); in the assay on SW-620 it was 2.22 µM (inactive); in the assay with TK-10, 5.57 µM (inactive). In addition, the GI50 with U-251 is 2.7 µM (inactive); in the assay on UO-31 it was 2 µM (inactive).

On to `O=C(Nc1cccc(C(F)(F)F)c1)c1cc(Br)cc(Br)c1O` [FLUOROSALAN], for which the GI50 in the assay on 786-0 is 3.63 µM (inactive); in the assay with CAKI-1, 2.3 µM (inactive); in the assay with CCRF-CEM it was 3.22 µM (inactive); in the assay with HL-60, 2.34 µM (inactive); with M14, 4.94 µM (inactive); in the assay on MCF7, 2.89 µM (inactive). The GI50 in the assay with MDA-MB-231 is 4.34 µM (inactive); in the assay with NCI/ADR-RES it was 2.36 µM (inactive); with RPMI-8226 it was 2.08 µM (inactive); in the assay on RXF 393, 2.71 µM (inactive); in the assay with SF-295, 2.62 µM (inactive); with SK-MEL-2, 2.32 µM (inactive). The GI50 in the assay with SK-MEL-5 is 1.65 µM (inactive); in the assay on SNB-19 it was 2.77 µM (inactive); with SNB-75 it was 3.35 µM (inactive); in the assay with SR it was > 10 µM (inactive); in the assay on SW-620, 3.9 µM (inactive); in the assay on TK-10, 2.96 µM (inactive). The figures for the GI50 in the assay with U-251 and with UO-31 were 3.79 µM (inactive) and 2.35 µM (inactive), respectively.

For the compound `O=C1CCCCC/C1=C\c1ccc([N+](=O)[O-])cc1`, the GI50 in the assay with 786-0 is 19.7 µM (inactive); with CAKI-1 it was 22.7 µM (inactive); in the assay with CCRF-CEM, 26.7 µM (inactive); in the assay with HL-60, 28.9 µM (inactive); in the assay on M14, 32.1 µM (inactive); with MCF7, 46.3 µM (inactive). The GI50 was 13 µM (inactive) with MDA-MB-231; 37.8 µM (inactive) in the assay on NCI/ADR-RES; 33.3 µM (inactive) with RPMI-8226; 33.4 µM (inactive) with RXF 393; 35.2 µM (inactive) in the assay on SF-295; 33 µM (inactive) with SK-MEL-2. The GI50 in the assay on SK-MEL-5 was 20.1 µM (inactive); in the assay with SNB-19 it was 29.4 µM (inactive); in the assay with SNB-75, 29.7 µM (inactive); in the assay on SR it was 40.1 µM (inactive); with SW-620, 39.9 µM (inactive); in the assay on TK-10, 28.5 µM (inactive). Further, the figures for the GI50 with U-251 and in the assay on UO-31 were 31.3 µM (inactive) and 24.5 µM (inactive), respectively.
